In PubChem BioAssay AID1259411 (Chemical Carcinogenesis Research Information System (CCRIS), 2018):
Calls of active or inactive are those of the source. No rule for the calls is given here.

System: rodent carcinogenicity bioassays, tumor incidence
Assay: CCRIS carcinogenicity studies
In short: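 Archive of carcinogenicity, mutagenicity, tumor promotion and tumor inhibition results drawn from journals, NCI reports and other sources, expert-reviewed; covers 1985-2011 and is no longer updated.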

Question: How did the carcinogen call (Species: MOUSE, Strain/Sex: B6C3F1/FEMALE, Route: ORAL, Dose: 0, 1250, 2500 PPM IN DIET, Dose: 0, 1250, 2500 PPM IN DIET) turn out when `CCC(Br)(CC)C(=O)NC(N)=O` was run?
Answer: Its carcinogen call is “inactive; negative”.

Question: What about the carcinogen call (Species: MOUSE, Strain/Sex: B6C3F1/MALE, Route: ORAL, Dose: 0, 1250, 2500 PPM IN DIET, Dose: 0, 1250, 2500 PPM IN DIET) of the same molecule?
Answer: Its carcinogen call is “inactive; negative”.

Question: And the carcinogen call (Species: RAT, Strain/Sex: F344/FEMALE, Route: ORAL, Dose: 0, 1250, 2500 PPM IN DIET, Dose: 0, 1250, 2500 PPM IN DIET)?
Answer: The carcinogen call was “inactive; negative”.

Question: What about the carcinogen call (Species: RAT, Strain/Sex: F344/MALE, Route: ORAL, Dose: 0, 1250, 2500 PPM IN DIET, Dose: 0, 1250, 2500 PPM IN DIET) of the same molecule?
Answer: The carcinogen call was “inactive; negative”.

Question: What does the source list for `CN(C)c1ccc(Cc2ccc(N(C)C)cc2)cc1`?
Answer: carcinogen call (Species: MOUSE, Strain/Sex: B6C3F1/FEMALE, Route: ORAL, Dose: 0, 1250, 2500 PPM IN DIET FOR 78 WK (STUDY DURATION: 91 WK), Dose: 0, 1250, 2500 PPM IN DIET FOR 78 WK (STUDY DURATION: 91 WK), Tumor Site: Type of Lesion: LIVER: HEPATOCELLULAR ADENOMA OR CARCINOMA): active; positive; carcinogen call (Species: MOUSE, Strain/Sex: B6C3F1/MALE, Route: ORAL, Dose: 0, 1250, 2500 PPM IN DIET FOR 78 WK (STUDY DURATION: 91 WK), Dose: 0, 1250, 2500 PPM IN DIET FOR 78 WK (STUDY DURATION: 91 WK), Tumor Site: Type of Lesion: LIVER: HEPATOCELLULAR ADENOMA OR CARCINOMA): equivocal; carcinogen call (Species: RAT, Strain/Sex: F344/FEMALE, Route: ORAL, Dose: 0, 0.0375, 0.075% IN DIET FOR 59 WK (STUDY DURATION: 2 YR), Dose: 0, 0.0375, 0.075% IN DIET FOR 59 WK (STUDY DURATION: 2 YR), Tumor Site: Type of Lesion: THYROID GLAND: FOLLICULAR CARCINOMA): active; positive; carcinogen call (Species: RAT, Strain/Sex: F344/FEMALE, Route: ORAL, Dose: 0, 375, 750 PPM IN DIET FOR 59 WK (STUDY DURATION: 104 WK), Dose: 0, 375, 750 PPM IN DIET FOR 59 WK (STUDY DURATION: 104 WK), Tumor Site: Type of Lesion: THYROID GLAND: FOLLICULAR CELL ADENOMA OR CARCINOMA): active; positive; carcinogen call (Species: RAT, Strain/Sex: F344/MALE, Route: ORAL, Dose: 0, 0.0375, 0.075% IN DIET FOR 59 WK (STUDY DURATION: 2 YR), Dose: 0, 0.0375, 0.075% IN DIET FOR 59 WK (STUDY DURATION: 2 YR), Tumor Site: Type of Lesion: THYROID GLAND: FOLLICULAR CARCINOMA): active; positive; carcinogen call (Species: RAT, Strain/Sex: F344/MALE, Route: ORAL, Dose: 0, 375, 750 PPM IN DIET FOR 59 WK (STUDY DURATION: 104 WK), Dose: 0, 375, 750 PPM IN DIET FOR 59 WK (STUDY DURATION: 104 WK), Tumor Site: Type of Lesion: THYROID GLAND: FOLLICULAR CELL ADENOMA OR CARCINOMA): active; positive

Question: How did the carcinogen call (Species: MOUSE, Strain/Sex: B6C3F1/FEMALE, Route: ORAL, Dose: 0, 1036, 2804 PPM IN DIET, TWA, Dose: 0, 1036, 2804 PPM IN DIET, TWA) turn out when `CCCCOCCOCCOCc1cc2c(cc1CCC)OCO2` was run?
Answer: Its carcinogen call is “inactive; negative”.

Question: What about the carcinogen call (Species: MOUSE, Strain/Sex: B6C3F1/MALE, Route: ORAL, Dose: 0, 1036, 2804 PPM IN DIET, TWA, Dose: 0, 1036, 2804 PPM IN DIET, TWA) of the same molecule?
Answer: Its carcinogen call is “inactive; negative”.

Question: What about the carcinogen call (Species: MOUSE, Strain/Sex: CD-1/FEMALE, Route: ORAL, Dose: 0, 0.6, 1.2% IN DIET FOR 52 WK (STUDY DURATION: 52 WK), Dose: 0, 0.6, 1.2% IN DIET FOR 52 WK (STUDY DURATION: 52 WK), Tumor Site: Type of Lesion: LIVER: HEPATOCELLULAR ADENOMA, HEPATOCELLULAR CARCINOMA) of the same molecule?
Answer: The carcinogen call was “active; positive”.

Question: What about the carcinogen call (Species: MOUSE, Strain/Sex: CD-1/FEMALE, Route: ORAL, Dose: 0, 30, 100, 300 MG/KG/D IN DIET FOR 79 WK (STUDY DURATION: 79 WK), Dose: 0, 30, 100, 300 MG/KG/D IN DIET FOR 79 WK (STUDY DURATION: 79 WK), Tumor Site: Type of Lesion: LIVER: HEPATOCELLULAR ADENOMA) of the same molecule?
Answer: The carcinogen call was “active; positive”.

Question: And the carcinogen call (Species: MOUSE, Strain/Sex: CD-1/MALE, Route: ORAL, Dose: 0, 0.6, 1.2% IN DIET FOR 12 MO (STUDY DURATION: 12 MO), Dose: 0, 0.6, 1.2% IN DIET FOR 12 MO (STUDY DURATION: 12 MO), Tumor Site: Type of Lesion: LIVER: HEPATOCELLULAR ADENOMA, HEPATOCELLULAR CARCINOMA, HEMANGIOENDOTHELIAL SARCOMA (SMALL), HEMANGIOENDOTHELIAL SARCOM)?
Answer: Its carcinogen call is “active; positive”.

Question: And the carcinogen call (Species: MOUSE, Strain/Sex: CD-1/MALE, Route: ORAL, Dose: 0, 0.6, 1.2% IN DIET FOR 52 WK (STUDY DURATION: 52 WK), Dose: 0, 0.6, 1.2% IN DIET FOR 52 WK (STUDY DURATION: 52 WK), Tumor Site: Type of Lesion: LIVER: HEPATOCELLULAR ADENOMA, HEPATOCELLULAR CARCINOMA)?
Answer: Its carcinogen call is “active; positive”.

Question: And the carcinogen call (Species: MOUSE, Strain/Sex: CD-1/MALE, Route: ORAL, Dose: 0, 30, 100, 300 MG/KG/D IN DIET FOR 79 WK (STUDY DURATION: 79 WK), Dose: 0, 30, 100, 300 MG/KG/D IN DIET FOR 79 WK (STUDY DURATION: 79 WK), Tumor Site: Type of Lesion: LIVER: HEPATOCELLULAR ADENOMA)?
Answer: The carcinogen call was “active; positive”.

Question: What about the carcinogen call (Species: RAT, Strain/Sex: F344/FEMALE, Route: ORAL, Dose: 0, 0.5, 1% IN DIET FOR 2 YR (STUDY DURATION: 110 WK), Dose: 0, 0.5, 1% IN DIET FOR 2 YR (STUDY DURATION: 110 WK)) of the same molecule?
Answer: The carcinogen call was “inactive; negative”.

Question: And the carcinogen call (Species: RAT, Strain/Sex: F344/FEMALE, Route: ORAL, Dose: 0, 0.6, 1.2, 2.4% IN DIET FOR 96 WK (STUDY DURATION: 96 WK), Dose: 0, 0.6, 1.2, 2.4% IN DIET FOR 96 WK (STUDY DURATION: 96 WK), Tumor Site: Type of Lesion: LIVER: HEPATOCELLULAR ADENOMA, HEPATOCELLULAR CARCINOMA)?
Answer: The carcinogen call was “active; positive”.

Question: And the carcinogen call (Species: RAT, Strain/Sex: F344/FEMALE, Route: ORAL, Dose: 0, 5000, 10000 PPM IN DIET, Dose: 0, 5000, 10000 PPM IN DIET)?
Answer: Its carcinogen call is “inactive; negative”.

Question: What about the carcinogen call (Species: RAT, Strain/Sex: F344/MALE, Route: ORAL, Dose: 0, 0.5, 1% IN DIET FOR 2 YR (STUDY DURATION: 110 WK), Dose: 0, 0.5, 1% IN DIET FOR 2 YR (STUDY DURATION: 110 WK)) of the same molecule?
Answer: The carcinogen call was “inactive; negative”.

Question: What about the carcinogen call (Species: RAT, Strain/Sex: F344/MALE, Route: ORAL, Dose: 0, 0.6, 1.2, 2.4% IN DIET FOR 95 WK (STUDY DURATION: 95 WK), Dose: 0, 0.6, 1.2, 2.4% IN DIET FOR 95 WK (STUDY DURATION: 95 WK), Tumor Site: Type of Lesion: LIVER: HEPATOCELLULAR ADENOMA, HEPATOCELLULAR CARCINOMA) of the same molecule?
Answer: Its carcinogen call is “active; positive”.

Question: And the carcinogen call (Species: RAT, Strain/Sex: F344/MALE, Route: ORAL, Dose: 0, 5000, 10000 PPM IN DIET, Dose: 0, 5000, 10000 PPM IN DIET)?
Answer: The carcinogen call was “inactive; negative”.

Question: What about the carcinogen call (Species: RAT, Strain/Sex: SPRAGUE-DAWLEY/FEMALE, Route: ORAL, Dose: 0, 30, 100, 500 MG/KG/D IN DIET FOR 104-105 WK (STUDY DURATION: 105 WK), Dose: 0, 30, 100, 500 MG/KG/D IN DIET FOR 104-105 WK (STUDY DURATION: 105 WK)) of the same molecule?
Answer: The carcinogen call was “inactive; negative”.

Question: And the carcinogen call (Species: RAT, Strain/Sex: SPRAGUE-DAWLEY/MALE, Route: ORAL, Dose: 0, 30, 100, 500 MG/KG/D IN DIET FOR 104-105 WK (STUDY DURATION: 105 WK), Dose: 0, 30, 100, 500 MG/KG/D IN DIET FOR 104-105 WK (STUDY DURATION: 105 WK))?
Answer: The carcinogen call was “inactive; negative”.

Question: How did the carcinogen call (Species: RAT, Strain/Sex: F344/FEMALE, Route: SUBCUTANEOUS, Dose: 6.6 MG/KG 1/WK FOR 10 WK, Tumor Site: Type of Lesion: INJECTION SITE: MALIGNANT FIBROUS HISTIOCYTOMA) turn out when `CC(=O)OCN(CC(C)C)N=O` was run?
Answer: Its carcinogen call is “active; positive”.

Question: With `CCCCCCCCS(=O)C(C)Cc1ccc2c(c1)OCO2` (stereo not given) as the molecule, how does the carcinogen call (Species: MOUSE, Strain/Sex: B6C3F1/FEMALE, Route: ORAL, Dose: 0, 295, 754 PPM IN DIET, TWA, Dose: 0, 295, 754 PPM IN DIET, TWA) read?
Answer: The carcinogen call was “inactive; negative”.

Question: And the carcinogen call (Species: MOUSE, Strain/Sex: B6C3F1/MALE, Route: ORAL, Dose: 0, 350, 700 PPM IN DIET, Dose: 0, 350, 700 PPM IN DIET, Tumor Site: Type of Lesion: LIVER: HEPATOCELLULAR CARCINOMA)?
Answer: The carcinogen call was “active; positive”.

Question: And the carcinogen call (Species: RAT, Strain/Sex: F344/FEMALE, Route: ORAL, Dose: 0, 3000, 6000 PPM IN DIET, Dose: 0, 3000, 6000 PPM IN DIET)?
Answer: Its carcinogen call is “inactive; negative”.

Question: What about the carcinogen call (Species: RAT, Strain/Sex: F344/MALE, Route: ORAL, Dose: 0, 1500, 3000 PPM IN DIET, Dose: 0, 1500, 3000 PPM IN DIET) of the same molecule?
Answer: Its carcinogen call is “inactive; negative”.
